Results: patent publication US6461844B1, “Liver GalNAc-1-phosphate kinase” (The Board of Trustees of the University of Arkansas, priority 1995, dated 2002)

Tests used:
[1] = Acid lability of the phosphate group of sugar phosphates; type: physicochemical; details: 0.05 N HCl, 100° C., up to 50 minutes
Experimental: A large amount of the radioactive product formed by the GalNAc kinase was isolated and purified on a DE-52 column, and this product was suspended in 0.05 N HCl and placed in a hot water bath at about 95° C. At various times, aliquots of the reaction mixture were removed, cooled, neutralized and passed through a column of DE-52 to determine whether the ^3H-GalNAc had lost its charge. Standards of Glc-6-P, Glc-1-P, GalNAc-1-P and GlcNAc-6-P were also subjected to the same hydrolysis conditions and were tested for their susceptibility to loss of phosphate.
The radioactive material was examined for purity and characterization by TLC chromatography on cellulose plates in 70% ethanol: 1 M ammonium acetate, pH 7.5 (7:3), or in 70% ethanol: 1 M ammonium acetate, pH 3.5 (7:3). The product was subjected to HPLC on the Dionex apparatus, using a column to separate various sugar phosphates from each other. Sugar-1-phosphates were distinguished from sugar-6-phosphates by their susceptibility to acid hydrolysis in 0.05 N HCl at 100° C. Sugar-1-phosphates are rapidly hydrolyzed whereas sugar-6-phosphates are stable. […]
The radioactive product from the ion exchange columns was suspended in 0.05 N HCl and heated at 100° C. for various periods of time. […] The amount of radioactivity that emerged in the wash was taken as a measure of removal of the phosphate group. […]

[2] = tested on: UDP-GlcNAc pyrophosphorylase; details: partially purified enzyme; cited from earlier work
[3] = tested on: UDP-GlcNAc pyrophosphorylases; details: UDP-GlcNAc = 100%; cited from earlier work
GalNAc kinase [4] = molecular target: T1, GalNAc kinase (Sus scrofa, UniProt A0A287BB25); assay: Azido-ATP[32P] photoaffinity labeling of the purified kinase; type: binding, pig; details: unlabeled nucleotide added
T1 construct: This enzyme was purified about 1400-fold from the cytosolic fraction of pig kidney; from tissue; host or cells: pig kidney cytosol
Experimental: The proteins were transferred to nitrocellulose membranes and exposed to film to detect the radioactive bands.
The purified enzyme fraction was incubated with azido-ATP[^32P], exposed to UV light and run on SDS gels. […] The product of the reaction was characterized as GalNAc-α-1-P by susceptibility of the phosphate group to mild acid hydrolysis, by its mobility on TLC and Dionex chromatography, and by high resolution NMR.
The GalNAc kinase was purified from the cytosolic fraction of pig kidney using the purification scheme described in the section above and outlined in Table I. Using this procedure, the kinase was purified about 1400-fold from crude extracts with a recovery of about 24%. […] In addition, the amount of label in that band increased with increasing amounts of the probe, and the labeling was inhibited by adding unlabeled ATP, but not by other nucleotides. […] Moreover, gel filtration of the native enzyme on Sephadex G-100 gave an activity peak in the region where proteins of about 48-51 kDa elute. Thus the native protein is probably a monomer of about 50 kDa molecular weight. Sufficient amounts of this protein band can be prepared to determine the amino acid sequence and to prepare antibodies.

GalNAc kinase [5] = molecular target: T1, GalNAc kinase; assay: Effect of substrate concentration on GalNAc kinase activity (Km); type: biochemical, pig; details: 300 μM GalNAc; Lineweaver-Burk; read-out: Km for ATP
Experimental: (§1) In FIG. 3A, various amounts of GalNAc were added to otherwise standard incubation mixtures containing 300 μM ATP, and the amount of GalNAc phosphorylated by the purified enzyme was determined. In FIG. 3B, the data was replotted by the method of Lineweaver and Burk. In FIG. 3C, various amounts of the other substrate, ATP, were added to otherwise standard incubation mixtures containing saturating (300 μM) levels of GalNAc and the amount of phosphorylation of GalNAc by the purified enzyme was determined.
(§2) GalNAc kinase activity was assayed in incubation mixtures of 200 μl containing the following components: [^3H]GalNAc (10,000 cpm), 1 μmole of ATP, 2 μmoles of MgCl2, 20 μmoles of Tris-HCl buffer, pH 7.5, and various amounts of the enzyme preparations to be assayed. Following an incubation for the appropriate time, the reaction was stopped by heating at 100° C. for 5 min., and the incubation mixture was applied to a column of DE-52. The column was washed with at least 5 column volumes of 10 mM (NH4)HCO3 buffer to remove unbound material, and then GalNAc phosphate was eluted with 500 mM ammonium bicarbonate. Aliquots of the wash and eluent were removed and assayed for their radioactive content by scintillation counting.

GalNAc kinase [6] = molecular target: T1, GalNAc kinase; assay: Phosphate donor specificity of GalNAc kinase; type: biochemical, pig; design: Radioactivity in Sugar-P: unit not given beside the values
[7] = substrate: CC(=O)N[C@H]1C(O)O[C@H](CO)[C@H](O)[C@@H]1O; assay: Effect of substrate concentration on GalNAc kinase activity (Km); type: biochemical, pig; details: other: 300 μM ATP; Lineweaver-Burk; pH 7.5
Experimental: as §1, §2

Molecule: CC(=O)N[C@@H]1C(O)[C@H](O)[C@@H](COP(=O)(O)O)O[C@H]1O (stereo partly drawn) [GlcNAc-6-phosphate]
- stability to acid hydrolysis [1]: quite stable

Molecule: CC(=O)N[C@H]1[C@@H](OP(=O)(O)OP(=O)(O)OC[C@H]2O[C@@H](n3ccc(=O)[nH]c3=O)[C@H](O)[C@@H]2O)O[C@H](CO)[C@H](O)[C@@H]1O [UDP-GalNAc]
- rate of pyrophosphorolysis relative to UDP-GlcNAc [2]: about 2.8%
- activity towards substrate [3]: 3%

Molecule: Nc1ncnc2c1ncn2[C@@H]1O[C@H](COP(=O)(O)OP(=O)(O)OP(=O)(O)O)[C@@H](O)[C@H]1O [ATP]
- effect on labeling of the 50 kDa band by ATP[32P] photoaffinity probe (GalNAc kinase [4]): inhibited
- Km (GalNAc kinase [5]): 100 µM
- activity as phosphate donor (GalNAc kinase [6]): by far the best phosphate donor
- Radioactivity in Sugar-P (GalNAc kinase [6]; nucleotide added at 5 mM): 10,195
- Specific Activity (GalNAc kinase [6]; nucleotide added at 5 mM): 160.0 nmol/mg

B1: GalNAc kinase (Sus scrofa) (protein)
chain: MATEGPPVHQVQVAEHPRLLKLKEIFNSKFGSIPKFYVRAPGRVNIIGEHIDYCGYSVLPMAVEQDMLIAVEPVKTHTLQLANTNPLYPDFNTSADNIQIDKTKPLWHNYFLCGFKGIQEHFGLSNLIGMNCLVDGNIPPSSGLSSSSALVCCAGLVTLTVLGMNLSKVELAEICAKSERYIGTEGGGMDQSISFLAEEGTAKLIEFSPLRATDVKLPSGAVFVIANSCVEMNKAATSHFNIRVMECRLAAKLLAKHRSLQWDKVLRLEEVQAKLGVSLEEMLLITEDTLHPEPYSPEEVCQCLGISLQELKTQILSPNTQDVLTFKLYQRAKHVYSEAARVLQFKKICEEAPDDMVQLLGELMNQSHVSCRDMYECSCPELDQLVDICRKFGAQGSRLTGAGWGGCTVSIVLADKLPSFLANVHEAYYQKSGRSLAPEKQSLFATKPGGGALVFLEA
notes: This enzyme was purified about 1400-fold from the cytosolic fraction of pig kidney; from tissue; host or cells: pig kidney cytosol
- Km [7]: 50 µM
